Data published in patent US8652770B2, “Storage of platelets under pressure with xenon containing atmosphere” (Rich Products Corporation, priority 2008, dated 2014).

Assays:
Assay type in all cases: cell-based, rabbit
platelets [1] = experiment: Platelet cell counting (hemocytometer) after storage of PRP; parameters: # cells: unit not given here; details: 4° C.; for # cells: Table 3, 4 bars total pressure of gas, 7 days; for Cell number: Input = 100%
Method: Blood was obtained by puncturing a rabbit marginal ear vein and collecting blood in a sterile vacuum tube. About 10-15 ml of blood was used, although the amount taken from any particular individual can be varied by the skilled artisan according to routine considerations, such as the size of the individual and the intended use of the platelets prepared according to the method of the invention.
The blood was centrifuged at a speed of approximately 200 g for 10 minutes to separate red blood cells (RBC) and platelet rich plasma (PRP). The PRP was transferred to another tube.
(§1) Two microliters of PRP were used to count cells essentially as described in Born et al. (J. Physiol. (1963) Vol. 168, pp 178-195). An additional two microliters were used for antibody staining and flow cytometry analysis performed essentially as reported in Shattil et al. (1987) Detection, Blood Vol. 70 p 307-315.
(§2) For determining platelet aggregation, approximately 250 microliters of PRP were used for a pre-treatment aggregation test. The remaining PRP was transferred to test tubes in which the atmosphere was adjusted to include xenon under two distinct pressures (4 bars of total pressure created by introducing 99.999% xenon into the test tube in a first set of experiments, and 5.3 bars of total pressure, also created by introducing 99.999% xenon into the test tube, in a second set of experiments). For adjusting the atmosphere in the containers, the test tubes were covered with rubberized caps that were punctured for introducing xenon. The test tubes were put into an experimental chamber and the atmosphere in the test tubes was adjusted by filling the test tubes with xenon using a 0.2-micrometer aseptic filter. Pressure changes in the tubes were measured using a manometer. Negative controls (no adjustment of the composition of the atmosphere in which the platelets were held) were also performed.
(§3) The chambers were shaken at 150-200 rpm on a Biosan OS-10 orbital shaker for one hour at ambient temperature (approximately 23° C.) to dissolve xenon in the PRP. The experimental chambers were then stored at approximately 4° C. with shaking at 50-70 rpm using a Biosan OS-10 orbital shaker and removed at one and two week time points for experiments under 4 bars of xenon pressure. The experiment using the initial xenon pressure of 5.3 bars were stored at 4° C. for 1 week.
After storage, the chambers were removed from refrigeration and kept at ambient temperature (approximately 23° C.) for 30 minutes with shaking at approximately 150-200 rpm. The atmosphere was then slowly allowed to equilibrate with ambient pressure of a period of 30 minutes by allowing the atmosphere in the chamber and in the test tubes to equilibrate with the atmosphere outside the test tubes through a specially adapted valve. […]
Subsequent to allowing the atmosphere in the experimental and control tubes to equilibrate with ambient pressure and temperature, the PRP samples were analyzed using conventional hemocytometer based cell counting, induced aggregation analysis using ADP and epinephrine, whereby aggregation was determined using manual counting and aggregometer analysis according to standard techniques, and by cd62p/cd61 immunostaining and flow cytometry analysis performed on an Epic XL, Beckman-Coulter cytometry machine. […]

platelets [2] = experiment: ADP-induced platelet aggregation, xenon compared to argon, vacuum step omitted; details: Table 3, 4 bars total pressure of gas, 4° C., 7 days, no vacuum step
Method: In view of the result obtained in Table 2, we performed another set of experiments to compare the properties of xenon to argon in ADP-induced platelet aggregation assays, the results of which are depicted in Table 3.
The experiments summarized in Table 3 were performed using an atmosphere of 4 bars total pressure created by introducing xenon or argon into the containers using essentially the same techniques as for the experiments described for Tables 1 and 2, except the PRP samples were cooled to 4° C. and held at approximately in an atmosphere of 3.8 bar xenon for 7 days. In this experiment, the initial partial pressure of xenon was 4 bars, but the pressure dropped to 3.8 bars during storage, presumably due to dissolution of xenon into the platelets from the atmosphere in the container.

Cd41/62p = Cd41/62p immunostaining and flow cytometry (platelet activation markers); details: for Cd41/62p: % of cells with activation markers, Xe 4 bars, 4° C., Input 13%
Description: We analyzed platelet activation using a standard methodology comprising immunostaining platelets for CD62 and CD41 and subsequent analysis by flow cytometry. […] Thus, it will be recognized by those skilled in the art that the invention provides stored platelet preparations that are useful for treating individuals in need of platelet transfusion therapy. It is therefore considered that practicing the method of the invention transforms a platelet concentrate that would not ordinarily tolerate refrigeration into a platelet concentrate that can withstand refrigeration such that the platelet concentrate remains useful for transfusions after being stored at refrigerated temperature for at least two weeks. It will also be recognized that the platelet concentrate has other potential uses, such as in high-throughput assays to screen a test agent for the capability to modify platelet function.
as §1
(§4) Analysis of the platelet function after storage included platelet counting at a hemocytometer, platelet aggregation tests using ADP and epinephrine as aggregation inducing agents, with manual counting and analysis using an aggregometer, and CD62p/CD61 antibody staining, with subsequent flow cytometry analysis on Epic XL, Beckman-Coulter generally as described in Shattil et al. (1987) Blood Vol. 70 p […] of platelets were stained using anti-CD62p and anti-CD61 antibodies obtained from commercial vendors.
(§5) Subsequent to allowing the atmosphere in the experimental and control tubes to equilibrate with ambient pressure and temperature, the PRP samples were analyzed using conventional hemocytometer based cell counting, induced aggregation analysis using ADP and epinephrine, whereby aggregation was determined using manual counting and aggregometer analysis according to standard techniques, and by cd62p/cd61 immunostaining and flow cytometry analysis performed on an Epic XL, Beckman-Coulter cytometry machine. The cdc62p/cd61 analysis was performed using commercially available antibodies and generally according to the known method reported in Shattil et al. (1987) Detection of activated platelets in whole blood using activation-dependent monoclonal antibodies and flow cytometry, Blood Vol. 70 p 307-315.
In Table 1, “Input” represents pre-treatment/storage measurements. Cell number and Aggregation induced by ADP/epinephrine before performing the method are used to set 100% values. […] NG=no gas. […]

platelets [3] = experiment: ADP/epinephrine induced platelet aggregation after storage of PRP; details: for Aggregation (ADP/epinephrine): Xe 4 bars, Input = 100%; for Aggregation (ADP/epinephrine), %: Table 2, 7 days Xe, 4 bars
Description: as §2, §3
After storage, the chambers were removed from refrigeration and kept at ambient temperature (approximately 23° C.) for 30 minutes with shaking at approximately 150-200 rpm. The atmosphere was then slowly allowed to equilibrate with ambient pressure of a period of 30 minutes by allowing the atmosphere in the chamber and in the test tubes to equilibrate with the atmosphere outside the test tubes through a specially adapted valve. Once the atmosphere in the chambers and test tubes equilibrated with ambient pressure, a vacuum was applied for approximately three minutes at approximately 380 mmHg to remove residual xenon from the PRP.
as §4, §5

Row | Structure (SMILES) | # cells (platelets [1]) | Aggregation % (platelets [2]) | Cd41/62p (Cd41/62p; PRP stored 7 days) | Cd41/62p (Cd41/62p; PRP stored 14 days) | surface CD62 and CD41 over control platelet concentrates not treated with xenon (Cd41/62p; platelet concentrates treated by the method) | inhibition of spontaneous activation (Cd41/62p) relative to the NG control (Cd41/62p; xenon 4 bar atmosphere treated samples) | Cell number (platelets [1]; PRP stored 7 days, Xe 4 bars) | Cell number (platelets [1]; PRP stored 7 days, Xe 5.3 bars) | Cell number (platelets [1]; PRP stored 14 days, Xe 4 bars) | improvement of ADP/Epinephrine induced aggregation by evacuating residual xenon with vacuum (platelets [3]; 7 days Xe 4 bars 4° C., with vs without vacuum) | Aggregation (ADP/epinephrine) (platelets [3]; PRP stored 7 days, 4° C.) | Aggregation (ADP/epinephrine) (platelets [3]; PRP stored 14 days, 4° C.) | Aggregation (ADP/epinephrine), % (platelets [3]; 4° C. with three minutes vacuum application) | Aggregation (ADP/epinephrine), % (platelets [3]; 4° C., no vacuum) | induced aggregation higher than no gas control (platelets [3]; after 2 weeks of storage, 4 bar xenon treated sample vs NG control)
1 | [Ar] [Argon, argon, reference compound] | 594 *106 | 100% |  |  |  |  |  |  |  |  |  |  |  |  | 
2 | [Xe] [Xenon, xenon] | 674 *106 | 87% | 39% | 33% | two-fold less | two-fold better inhibition | 77.5%^ | 12.6% | 59% | 20% | 83% | 54.5%^ | 72% | 53% | about 20%
